# Reference: patent US7009045B2 (priority 2000, dated 2006)
# Experiments:
# Format in all cases: cell-based
# [1] = tested on: Candida famata regulatory mutants able to overproduce riboflavin; assay: Sensitivity to copper ions, solid Burkholder medium (Table 12)
# Experimental: (§1) The sensitivity of the regulatory mutants of the yeast C. famata which overproduce riboflavin in iron rich medium probably due to defects in genes regulating repression (repression mutants), to different ions of heavy metals was studied. For this, the analyzed strains were streaked on the YPD plates and then were replica-plated on Burkholder synthetic medium containing leucine (40 μg/ml). The C.famata mutants L20105-40-1-11, L20105-40-1-17, L20105-3-2-1, L20105-3-2-8 and L20105-3-2-12 (all contained leu2 marker) accumulated 80–100 μg riboflavin/ml. The mutants #75, 4-48, 2-5 produced much higher amounts of riboflavin (200–250 μg/ml) but were prototrophs for leucine synthesis. Strain #75 was characterized by retarded growth comparing with other mutants. The strains VKM Y-9 (wild type) and L20105 (leu2) were used as the control strains.
# Mutants overproducing lower amounts of riboflavin appeared to be more sensitive to CuSO4 (0.15 mM) than that of the strains producing higher amounts of riboflavin (inhibitory concentration 0.5 mM) (Table 12).
# [2] = tested on: Candida famata regulatory mutants able to overproduce riboflavin; assay: Sensitivity to K2Cr2O7, solid Burkholder medium with 0.3 M sucrose (Table 13)
# Experimental: as §1
# [3] = tested on: Candida famata regulatory mutants able to overproduce riboflavin; assay: Sensitivity to K2Cr2O7, solid Burkholder medium with 0.5% glycerol (Table 14); design: key: +++: strong growth; ++: weak growth; —: absence of growth
# Experimental: as §1
compound,measurement,setting,value
O=S(=O)([O-])[O-].[Cu+2] [CuSO4],"inhibitory concentration, mutants overproducing lower amounts of riboflavin",[1],0.15 mM
same,"inhibitory concentration, strains producing higher amounts of riboflavin",[1],0.5 mM
[K+].[K+].[O]=[Cr](=[O])([O-])[O][Cr](=[O])(=[O])[O-] [K2Cr2O7],concentration inhibiting growth of strain #75,[2]; medium with 0.3 M sucrose,100 µM
same,concentration inhibiting growth of strains with higher riboflavin production,[2]; medium with 0.3 M sucrose,175 µM
same,concentration totally inhibiting growth of mutants with lower levels of riboflavin overproduction,[2]; medium with 0.3 M sucrose,125 µM
same,effect of subinhibitory concentrations on flavinogenesis of all tested strains,[2]; riboflavin overproducers and wild-type strains,stimulated flavinogenesis
same,growth,"[3]; #2-5, K2Cr2O7 25 μM",+++
same,growth,"[3]; #2-5, K2Cr2O7 30 μM",+++
same,growth,"[3]; #2-5, K2Cr2O7 35 μM",+++
same,growth,"[3]; #2-5, K2Cr2O7 40 μM",+++
same,growth,"[3]; #2-5, K2Cr2O7 45 μM",+++
same,growth,"[3]; #2-5, K2Cr2O7 55 μM",++
same,growth,"[3]; #2-5, K2Cr2O7 85 μM",—
same,growth,"[3]; #2-5, K2Cr2O7 100 μM",—
same,growth,"[3]; #2-5, K2Cr2O7 125 μM",—
same,growth,"[3]; #2-5, K2Cr2O7 150 μM",—
same,growth,"[3]; #4-48, K2Cr2O7 25 μM",+++
same,growth,"[3]; #4-48, K2Cr2O7 30 μM",+++
same,growth,"[3]; #4-48, K2Cr2O7 35 μM",+++
same,growth,"[3]; #4-48, K2Cr2O7 40 μM",+++
same,growth,"[3]; #4-48, K2Cr2O7 45 μM",+++
same,growth,"[3]; #4-48, K2Cr2O7 55 μM",++
same,growth,"[3]; #4-48, K2Cr2O7 65 μM",—
same,growth,"[3]; #4-48, K2Cr2O7 70 μM",—
same,growth,"[3]; #4-48, K2Cr2O7 75 μM",—
same,growth,"[3]; #4-48, K2Cr2O7 85 μM",—
same,growth,"[3]; #4-48, K2Cr2O7 100 μM",—
same,growth,"[3]; #4-48, K2Cr2O7 125 μM",—
same,growth,"[3]; #4-48, K2Cr2O7 150 μM",—
same,growth,"[3]; #75, K2Cr2O7 25 μM",+++
same,growth,"[3]; #75, K2Cr2O7 30 μM",+++
same,growth,"[3]; #75, K2Cr2O7 35 μM",+++
same,growth,"[3]; #75, K2Cr2O7 45 μM",++
same,growth,"[3]; #75, K2Cr2O7 55 μM",++
same,growth,"[3]; #75, K2Cr2O7 65 μM",—
same,growth,"[3]; #75, K2Cr2O7 70 μM",—
same,growth,"[3]; #75, K2Cr2O7 75 μM",—
same,growth,"[3]; #75, K2Cr2O7 85 μM",—
same,growth,"[3]; #75, K2Cr2O7 100 μM",—
same,growth,"[3]; #75, K2Cr2O7 125 μM",—
same,growth,"[3]; #75, K2Cr2O7 150 μM",—
same,growth,"[3]; L20105 (leu2), K2Cr2O7 25 μM",+++
same,growth,"[3]; L20105 (leu2), K2Cr2O7 30 μM",+++
same,growth,"[3]; L20105 (leu2), K2Cr2O7 35 μM",+++
same,growth,"[3]; L20105 (leu2), K2Cr2O7 40 μM",+++
same,growth,"[3]; L20105 (leu2), K2Cr2O7 45 μM",+++
same,growth,"[3]; L20105 (leu2), K2Cr2O7 50 μM",+++
same,growth,"[3]; L20105 (leu2), K2Cr2O7 55 μM",+++
same,growth,"[3]; L20105 (leu2), K2Cr2O7 60 μM",+++
same,growth,"[3]; L20105 (leu2), K2Cr2O7 65 μM",++
same,growth,"[3]; L20105 (leu2), K2Cr2O7 70 μM",++
same,growth,"[3]; L20105 (leu2), K2Cr2O7 75 μM",++
same,growth,"[3]; L20105 (leu2), K2Cr2O7 85 μM",++
same,growth,"[3]; L20105 (leu2), K2Cr2O7 100 μM",++
same,growth,"[3]; L20105 (leu2), K2Cr2O7 125 μM",—
same,growth,"[3]; L20105 (leu2), K2Cr2O7 150 μM",—
same,growth,"[3]; L20105-3-2-4, K2Cr2O7 25 μM",+++
same,growth,"[3]; L20105-3-2-4, K2Cr2O7 45 μM",—
same,growth,"[3]; L20105-3-2-4, K2Cr2O7 50 μM",—
same,growth,"[3]; L20105-3-2-4, K2Cr2O7 55 μM",—
same,growth,"[3]; L20105-3-2-4, K2Cr2O7 60 μM",—
same,growth,"[3]; L20105-3-2-4, K2Cr2O7 65 μM",—
same,growth,"[3]; L20105-3-2-4, K2Cr2O7 70 μM",—
same,growth,"[3]; L20105-3-2-4, K2Cr2O7 85 μM",—
same,growth,"[3]; L20105-3-2-4, K2Cr2O7 100 μM",—
same,growth,"[3]; L20105-3-2-4, K2Cr2O7 125 μM",—
same,growth,"[3]; L20105-3-2-4, K2Cr2O7 150 μM",—
same,growth,"[3]; L20105-3-2-8, K2Cr2O7 25 μM",+++
same,growth,"[3]; L20105-3-2-8, K2Cr2O7 45 μM",—
same,growth,"[3]; L20105-3-2-8, K2Cr2O7 50 μM",—
same,growth,"[3]; L20105-3-2-8, K2Cr2O7 55 μM",—
same,growth,"[3]; L20105-3-2-8, K2Cr2O7 60 μM",—
same,growth,"[3]; L20105-3-2-8, K2Cr2O7 65 μM",—
same,growth,"[3]; L20105-3-2-8, K2Cr2O7 70 μM",—
same,growth,"[3]; L20105-3-2-8, K2Cr2O7 75 μM",—
same,growth,"[3]; L20105-3-2-8, K2Cr2O7 85 μM",—
same,growth,"[3]; L20105-3-2-8, K2Cr2O7 100 μM",—
same,growth,"[3]; L20105-3-2-8, K2Cr2O7 125 μM",—
same,growth,"[3]; L20105-3-2-8, K2Cr2O7 150 μM",—
same,growth,"[3]; L20105-3-2-12, K2Cr2O7 25 μM",+++
same,growth,"[3]; L20105-3-2-12, K2Cr2O7 45 μM",—
same,growth,"[3]; L20105-3-2-12, K2Cr2O7 50 μM",—
same,growth,"[3]; L20105-3-2-12, K2Cr2O7 55 μM",—
same,growth,"[3]; L20105-3-2-12, K2Cr2O7 60 μM",—
same,growth,"[3]; L20105-3-2-12, K2Cr2O7 65 μM",—
same,growth,"[3]; L20105-3-2-12, K2Cr2O7 70 μM",—
same,growth,"[3]; L20105-3-2-12, K2Cr2O7 75 μM",—
same,growth,"[3]; L20105-3-2-12, K2Cr2O7 85 μM",—
same,growth,"[3]; L20105-3-2-12, K2Cr2O7 100 μM",—
same,growth,"[3]; L20105-3-2-12, K2Cr2O7 125 μM",—
same,growth,"[3]; L20105-3-2-12, K2Cr2O7 150 μM",—
same,growth,"[3]; VKM Y-9, K2Cr2O7 65 μM",+++
same,growth,"[3]; VKM Y-9, K2Cr2O7 70 μM",+++
same,growth,"[3]; VKM Y-9, K2Cr2O7 75 μM",+++
same,growth,"[3]; VKM Y-9, K2Cr2O7 85 μM",+++
same,growth,"[3]; VKM Y-9, K2Cr2O7 100 μM",+++
same,growth,"[3]; VKM Y-9, K2Cr2O7 125 μM",++
